Assay results: ChEMBL document CHEMBL2448809, “UCSF DeRisi Lab MMV Box Apicoplast Screening”

What follows are compounds tested on Plasmodium falciparum (assay: MMV: Compounds (1uM) were screened in a 72hr growth assay monitored by flow cytometry both in the presence and absence of supplemental isopentenyl pyrophosphate (IPP) 200uM. Compounds which fail to show anti-malarial activity when chemically rescued by IPP are therefore specific to the apicoplast. The values are expressed as the ratio of the corresponding activity with and without IPP, respectively.).
Format: functional, W2

Compared with O=C(Nc1ccc(Cl)c(Cl)c1)Nc1ccc(Cl)c(Cl)c1, O=C(Nc1ccc(-c2nc3cc(NC(=O)c4ccc(Cl)cc4)ccc3[nH]2)cc1)c1ccc(Cl)cc1 is lower in Ratio: 1.022 for the first, 0.9036 for the second.

Compared with COc1ccc(-c2cc3c(nn2)-c2ccccc2C3=O)cc1, COc1ccc(Nc2cc(C)nc(NCc3ccccc3)n2)cc1 is lower in Ratio: 1.105 for the first, 0.7294 for the second.

Compared with COc1ccc(C2c3ccc4ccccc4c3Oc3ncn(CCCN(C)C)c(=N)c32)cc1 (stereo not given), COc1ccc(C2c3ccc4ccccc4c3Oc3ncn(CCCn4ccnc4)c(=N)c32)cc1OC (stereo not given) is lower in Ratio: 1.078 for the first, 1.051 for the second.

First: Nc1nc(Nc2cccc(F)c2)nc2ccccc12
Second: COc1cccc(Nc2nc(N)c3ccccc3n2)c1.Cl
The Ratio of the first is higher: 1.176 for the first, 0.9815 for the second.

Going from COc1ccc(/C=C2/SC(=Nc3ccccc3)NC2=O)cc1 to COc1ccccc1N1C(=N)SC(=Cc2ccc(OCc3ccccc3F)cc2)C1=O, the Ratio falls from 1.136 to 1.033.

Going from c1ccc(/C2=N/c3ccccc3/N=C(/c3ccccc3)c3ccccc32)cc1 to c1ccc(CNc2nc(Nc3ccccc3)nc3ccccc23)cc1, the Ratio rises from 0.807 to 1.

First: COc1ccc(-c2nc(N3CCN(C(=O)C4CCCCC4)CC3)c3c4c(sc3n2)CCCC4)cc1
Second: CCOC(=O)c1cnc2ccc(OC)cc2c1Nc1ccc(N2CCN(C)CC2)cc1
The Ratio of the first is higher: 1.015 for the first, 0.9667 for the second.

First: O=C(NC1CCN(Cc2ccccc2)CC1)c1cc2nc(-c3ccc(Cl)s3)cc(C(F)(F)F)n2n1
Second: O=c1cc(NC2CCN(CCCc3ccccc3)CC2)c2cc(Cl)ccc2o1
The Ratio of the first is lower: 0.6993 for the first, 1.019 for the second.

First: Cc1sc(NC(=O)c2ccccc2)c(C(c2cccs2)N2CCN(c3ccccc3)CC2)c1C (stereo not given)
Second: N#Cc1nc(Cc2cccc3ccccc23)oc1N1CCN(C(c2ccccc2)c2ccccc2)CC1
The Ratio of the first is lower: 0.9412 for the first, 1.062 for the second.

First: CCOC(=O)c1c(C)n(-c2ccccc2)c2ccc(OC(=O)c3cc(OC)c(OC)c(OC)c3)cc12
Second: CCOC(=O)c1cnc2ccc(OC)cc2c1NCc1ccccc1
The Ratio of the first is higher: 0.9 for the first, 0.7154 for the second.

Going from COc1ccc(CCN2C(=O)c3[nH]nc(-c4cc(Cl)c(C)cc4O)c3C2c2ccccc2F)cc1 (stereo not given) to COc1ccc(CNC(=O)c2cc3c(=O)n4ccccc4nc3n(CCc3ccccc3)c2=N)cc1, the Ratio rises from 0.7742 to 0.8046.

Compared with CN(N=O)C1=C(NC2CCCCC2)C(=O)c2ccccc2C1=O, O=C(NC1CCCCC1)C(c1cccs1)N(CCc1ccccc1)C(=O)c1ccco1 (stereo not given) is lower in Ratio: 1.071 for the first, 0.9135 for the second.

Compared with CCOC(=O)C1=C(C)N=c2sc(=Cc3ccccc3O)c(=O)n2C1c1ccc(OC)c2ccccc12 (stereo not given), COc1ccc2c(c1OC)C(=O)N1c3ccccc3N=C(c3ccc(C)cc3)CC21 (stereo not given) is lower in Ratio: 1.667 for the first, 1.052 for the second.

Compared with FC(F)(F)c1cccc(Nc2nc3ccccc3nc2Nc2cccc(C(F)(F)F)c2)c1, Brc1ccc(Nc2nc3ccccc3nc2Nc2ccc(Br)cc2)cc1 is lower in Ratio: 1.08 for the first, 0.8871 for the second.

Going from CCOc1ccc(N2C(N)=NC(N)=NC2(C)C)cc1.Cl to CCOc1ccc2nc(C)cc(Nc3ccc(N(C)C)cc3)c2c1.Cl, the Ratio rises from 0.7815 to 1.135.

Compared with Cc1ccc(C(=O)c2oc3ccc4c(C)cc(=O)oc4c3c2C)cc1, COc1ccc(-c2cc(=O)oc3c4c(ccc23)OCN(Cc2ccc(F)cc2)C4)cc1 is lower in Ratio: 1.018 for the first, 0.9508 for the second.

First: COc1ccc(CN2CCCC(C(=O)c3ccc(C(F)(F)F)cc3)C2)c(O)c1 (stereo not given)
Second: COc1ccc(C(O)(CCC(C)C)C(CN2CCOCC2)c2ccc(Cl)cc2)cc1.Cl (stereo not given)
The Ratio of the first is lower: 0.8852 for the first, 1.06 for the second.

First: CCCCCCc1cc2cc(-c3csc(C=Cc4ccccc4)n3)c(=O)oc2cc1O
Second: CCCCCCc1cc2cc(-c3nc4ccccc4[nH]3)c(=Nc3ccccc3C)oc2cc1O
The Ratio of the first is lower: 0.86 for the first, 0.9685 for the second.

Going from O=C(CCl)NCCOc1ccc(Cl)cc1Cl to COc1cc(CNCCc2ccc(Cl)cc2)cc(OC)c1O, the Ratio falls from 1.041 to 0.9459.

First: Oc1ccc(-c2nc(-c3ccc4oc5ccc(-c6[nH]c(-c7ccc(O)cc7)nc6-c6ccccc6)cc5c4c3)c(-c3ccccc3)[nH]2)cc1
Second: COc1cc(-c2nc(-c3ccc(Sc4ccccc4)cc3)c(-c3ccccc3)[nH]2)cc(OC)c1O
The Ratio of the first is lower: 0.8182 for the first, 1.071 for the second.

First: CC(Oc1ccc(NC(=O)c2cccs2)cc1)C(=O)c1ccc(Cl)cc1 (stereo not given)
Second: Cc1ccccc1OCCSc1nc2ccc(NC(=O)c3cccs3)cc2s1
The Ratio of the first is higher: 1 for the first, 0.9467 for the second.

Going from Cl.c1ccc2c(NCCCCCCNc3c4c(nc5ccccc35)CCCC4)c3c(nc2c1)CCCC3 to c1ccc2c(NCCc3c[nH]c4ccccc34)c3ccccc3nc2c1, the Ratio falls from 1.108 to 1.057.

Compared with O=C(NC1CCN(Cc2ccccc2)CC1)c1cc(C(=O)NC2CCN(Cc3ccccc3)CC2)cc(C(=O)NC2CCN(Cc3ccccc3)CC2)c1, Cc1ccc(C2CC(C(F)(F)F)n3nc(C(=O)N4CCN(C(c5ccccc5)c5ccccc5)CC4)cc3N2)cc1 (stereo not given) is lower in Ratio: 1.119 for the first, 0.725 for the second.

Going from COc1ccc(CCn2c(=N)c(C(=O)NCc3cccnc3)cc3c(=O)n4cccc(C)c4nc32)cc1 to COc1ccc2sc(N(Cc3cccnc3)C(=O)c3ccc(C#N)cc3)nc2c1, the Ratio falls from 0.875 to 0.8548.

First: Nc1ccc(-c2nc3cc(Cc4ccc5[nH]c(-c6ccc(N)cc6)nc5c4)ccc3[nH]2)cc1
Second: O=C(Nc1ccc(-c2nc3cc4ccccc4cc3[nH]2)cc1)c1cccc(Br)c1
The Ratio of the first is higher: 1.333 for the first, 1.254 for the second.

Going from COc1ccc(-c2cn3c(C(=O)Nc4ccccc4Cl)c(-c4ccccc4)c4c3n2CCCC4)cc1 to COc1ccc(C(=O)NC(c2ccccc2Cl)c2cc(Cl)c3cccnc3c2O)cc1 (stereo not given), the Ratio rises from 1.057 to 1.365.

Going from CCCCOC(=O)c1ccc(Nc2cc(C)nc3ccc(OC)cc23)cc1 to CCOc1ccc2nc(C)cc(Nc3ccc(Br)cc3)c2c1, the Ratio falls from 1.132 to 1.038.

Compared with Cl.Cn1c(=O)n(C)c2cc(CNCCNc3ccnc4cc(Cl)ccc34)ccc21, CCN(CC)CCCNc1ccnc2cc3ccccc3cc12 is lower in Ratio: 1.09 for the first, 0.9344 for the second.

First: Cc1cc(Nc2ccc(OCc3ccccc3)cc2)nc2cc(O)ccc12
Second: CCOc1ccc(Nc2c3ccccc3nc3ccccc23)cc1.Cl
The Ratio of the first is lower: 0.8026 for the first, 1 for the second.

First: CCN(CC)CCNc1ccnc2cc3ccccc3cc12.O=P(O)(O)O
Second: COc1ccccc1C(=O)ON=C(N)Cc1cccc2ccccc12
The Ratio of the first is lower: 1.056 for the first, 1.06 for the second.

Compared with N=c1c2ccccc2nnn1-c1cccc(C(F)(F)F)c1, Cc1ccc2nc(C)cc(Nc3cccc(C(F)(F)F)c3)c2c1.Cl is lower in Ratio: 1.0625 for the first, 0.875 for the second.

Compared with COc1ccc(C=C2SC(Nc3ccc(F)cc3)=NC2=O)c(OC)c1, COc1ccc(CCNC(=O)c2cc(S(=O)(=O)N3CC(C)CC(C)C3)ccc2Sc2ccc(F)cc2)cc1OC (stereo not given) is higher in Ratio: 0.9324 for the first, 1.061 for the second.

Compared with COc1ccc(C2NCCc3c2[nH]c2ccccc32)cc1CN1CCN(c2ccc(F)cc2)CC1.Cl (stereo not given), CCCOCc1cc(CN2CCN(c3cccc(Cl)c3)CC2)c(O)c2ncccc12 is higher in Ratio: 0.8727 for the first, 0.9844 for the second.

Compared with O=C1c2ccc3c4c(ccc(c24)C(=O)N1CCCCO)C(=O)N(CCCCO)C3=O, CC1=C(CC(=O)c2cccc([N+](=O)[O-])c2)C(=O)c2ccccc2C1=O is higher in Ratio: 1.047 for the first, 1.085 for the second.

First: OC(Cn1nnc2ccccc21)Cn1c2ccc(Br)cc2c2cc(Br)ccc21 (stereo not given)
Second: OC(CNC1CCCCC1)Cn1c2ccc(I)cc2c2cc(I)ccc21 (stereo not given)
The Ratio of the first is lower: 0.9531 for the first, 1.043 for the second.

First: CCOc1ccc(-n2cc(-c3ccccc3)c3c(SCc4cc(C)ccc4C)ncnc32)cc1
Second: Cc1ccc(-c2nc3ccccc3o2)cc1NCc1cc(Cc2ccccc2)ccc1O
The Ratio of the first is lower: 0.9394 for the first, 1.167 for the second.

Going from Cc1ccc(C)c(Cn2c(N3CCC(C(=O)NCc4cccs4)CC3)nc3ccccc32)c1 to CC1CCN(Cc2c(O)ccc3cc(-c4nc5ccccc5s4)c(=O)oc23)CC1, the Ratio rises from 1 to 1.058.

First: Cc1ccc2cc3c(N)c4c(C)ccc(C)c4nc3nc2c1
Second: CCOC(=O)c1cnc2c(C)cccc2c1Nc1ccc(C(C)=O)cc1
The Ratio of the first is lower: 1.095 for the first, 1.3 for the second.

Compared with COc1ccc(C(=O)C(CCC(CNC(C)(C)C)C(=O)c2ccc(OC)cc2)CNC(C)(C)C)cc1 (stereo not given), COc1cc(OC)cc(N2C(=O)N(Cc3ccc(C(C)(C)C)cc3)c3ccccc3S2(=O)=O)c1 is lower in Ratio: 0.9453 for the first, 0.9143 for the second.

Going from CCOc1cc2c(cc1OCC)C(c1cc(Cl)ccc1O)NCC2 (stereo not given) to CCOc1ccc2c(c1)CN(Cc1ccc(Cl)cc1)CO2, the Ratio falls from 1.123 to 0.8361.

First: COc1ccc(C2C(C(=O)Nc3cccc(OC)c3)c3ccccc3C(=O)N2C2CCCCC2)cc1 (stereo not given)
Second: COc1cccc(C(=O)NC(c2ccc(C)cc2)c2cc(Cl)c3cccnc3c2O)c1 (stereo not given)
The Ratio of the first is lower: 0.7969 for the first, 1.1 for the second.

Going from O=C(Nc1ccc(C23CC4CC(CC(c5ccccc5)(C4)C2)C3)cc1)c1cccs1 to CN1CCN(c2nc(Nc3ccc(O)cc3)nc3ccccc23)CC1.Cl, the Ratio falls from 0.9231 to 0.8636.

First: CN1C=C(c2ccc3ccccc3n2)C(c2c[nH]c3ccccc23)c2ccccc21 (stereo not given)
Second: O=C(Cc1ccccc1)NC(c1ccc(Cl)cc1)c1c(O)ccc2ccccc12 (stereo not given)
The Ratio of the first is higher: 1.295 for the first, 0.873 for the second.

First: Cc1cccc(N2C(=O)C3C(C2=O)C2(c4ccccc4)C(=O)C3(c3ccccc3)C(c3ccc4c(c3)OCO4)=C2c2ccc3c(c2)OCO3)c1 (stereo not given)
Second: CC(C)(C)c1ccc(C2CC3=Nc4ccccc4N(C(=O)c4ccccc4Cl)C(c4ccc(F)cc4)C3=C(O)C2)cc1 (stereo not given)
The Ratio of the first is lower: 0.9857 for the first, 1 for the second.

First: CCCCCCc1cc(O)c2c3c(c(=O)oc2c1)CCC(C)C3 (stereo not given)
Second: CCCCc1c(CCC)c(=N)c2ccccc2n1C.I
The Ratio of the first is higher: 1.073 for the first, 0.7821 for the second.

First: Oc1ccc(Br)cc1CN1CCN(Cc2ccc(Cl)cc2)CC1
Second: Cc1ccc(F)cc1NC(=O)c1cc(Cl)ccc1Nc1ccccc1
The Ratio of the first is lower: 0.9138 for the first, 1.055 for the second.

Going from CCCc1c(C)nc2ccc(Br)cc2c1O to CCOC(=O)c1c[nH]c2c(CC)cccc2c1=O, the Ratio falls from 1 to 0.8986.

Compared with COc1cc2c3cc1Oc1c(OC)c(OC)cc4c1C(Cc1ccc(O)c(c1)Oc1ccc(cc1)CC3N(C)CC2)N(C)CC4.Cl (stereo not given), CN(C)c1ccc(N=Cc2ccc(N3CCOCC3)cc2)cc1 is higher in Ratio: 0.95 for the first, 0.9558 for the second.

First: CCCCCCC(O)(c1ccc(F)cc1)C(CN1CCOCC1)c1ccccc1.Cl (stereo not given)
Second: CCOC(=O)C1=CN(C)C=C(C(=O)OCC)C1c1cc(Br)c(OCC)c(OC)c1
The Ratio of the first is lower: 0.9077 for the first, 1.052 for the second.

Going from CCOc1c(Br)cc(C2C(C(=O)OC)=CN(C)C=C2C(=O)OC)cc1OC to CC1CC2=C(CC1CNCCCN(C)C)C(C)(C)CCC2 (stereo not given), the Ratio falls from 1.02 to 0.931.
